# ChEMBL document CHEMBL5247638, “From rational design to serendipity: Discovery of novel thiosemicarbazones as potent trypanocidal compounds” (Eur J Med Chem, 2022)
# Active and inactive are the calls of the source. No cut-off for these calls is given here.
# Experiments:
# [1] = Inhibition of TbrCatL using Z-FR-AMC as substrate preincubated for 10 mins followed by substrate addition by fluorimetric analysis; set-up: species or system Trypanosoma brucei
# Trypanosoma brucei [2] = assay: Antiparasitic activity against Trypanosoma brucei incubated for 72 hrs by SYBR Green 1 dye based fluorescence assay; assay type: functional, organism-based
# Trypanosoma cruzi [3] = assay: Antiparasitic activity against Trypanosoma cruzi CA-I/72 incubated for 72 hrs by DAPI staining based microscopic analysis; assay type: functional, organism-based; settings: CA-I/72, 72 h
# [4] = target: Cruzipain (Trypanosoma cruzi) (UniProt P25779); assay: Inhibition of Trypanosoma cruzi cruzain using Z-FR-AMC as substrate at 100 uM by fluorimetric analysis relative to control
# [5] = target: Cruzipain (Trypanosoma cruzi) (UniProt P25779); assay: Inhibition of Trypanosoma cruzi cruzain using Z-FR-AMC as substrate at 100 uM preincubated for 10 mins followed by substrate addition by fluorimetric analysis relative to control
# Trypanosoma brucei [6] = assay: Inhibition of TbrCatL using Z-FR-AMC as substrate at 100 uM by fluorimetric analysis relative to control
# Trypanosoma brucei [7] = assay: Inhibition of TbrCatL using Z-FR-AMC as substrate at 100 uM preincubated for 10 mins followed by substrate addition by fluorimetric analysis relative to control
# Cruzipain = Cruzipain (Trypanosoma cruzi, UniProt P25779); assay: Inhibition of Trypanosoma cruzi cruzain using Z-FR-AMC as substrate preincubated for 10 mins followed by substrate addition by fluorimetric analysis
# [8] = target: Nonstructural protein 3 (Zika virus) (UniProt A0A024AXB9); assay: Inhibition of Zika virus NS2B-NS3 protease using Bz-Nle-Lys-Lys-Arg-AMC as substrate at 0.78 uM preincubated for 10 mins followed by substrate addition relative to control
# [9] = Selectivity index, ratio of CC50 for mouse myoblasts cells to EC50 for Trypanosoma cruzi CA-I/72; assay type: toxicity; settings: read-out: Ratio CC50/EC50
# Trypanosoma cruzi [10] = assay: Potency index, ratio of pentamidine EC50 to test compound EC50 for antiparasitic activity against Trypanosoma cruzi CA-I/72 incubated for 72 hrs by DAPI staining based microscopic analysis; assay type: functional
# Trypanosoma cruzi [11] = assay: Potency index, ratio of benznidazole EC50 to test compound EC50 for antiparasitic activity against Trypanosoma cruzi CA-I/72 incubated for 72 hrs by DAPI staining based microscopic analysis; assay type: functional
# [12] = Inhibition of TbrCatL using Z-FR-AMC as substrate preincubated for 10 mins followed by substrate addition in presence of 0% Triton by fluorimetric analysis; set-up: species or system Trypanosoma brucei
# [13] = Inhibition of TbrCatL using Z-FR-AMC as substrate preincubated for 10 mins followed by substrate addition in presence of 0.01% Triton by fluorimetric analysis; set-up: species or system Trypanosoma brucei
# [14] = Inhibition of TbrCatL using Z-FR-AMC as substrate preincubated for 10 mins followed by substrate addition in presence of 0.1% Triton by fluorimetric analysis; set-up: species or system Trypanosoma brucei
# [15] = Inhibition of TbrCatL using Z-FR-AMC as substrate preincubated for 10 mins in presence of BSA followed by substrate addition by fluorimetric analysis; set-up: species or system Trypanosoma brucei
# [16] = target: Cruzipain (Trypanosoma cruzi) (UniProt P25779); assay: Inhibition of Trypanosoma cruzi cruzain using Z-FR-AMC as substrate at 0.25 to 1 uM incubated for 10 mins by fluorimetric analysis; settings: dose 0.25-1 µM
# Cruzipain (Trypanosoma cruzi), sequence (P25779 123-467 limits assumed): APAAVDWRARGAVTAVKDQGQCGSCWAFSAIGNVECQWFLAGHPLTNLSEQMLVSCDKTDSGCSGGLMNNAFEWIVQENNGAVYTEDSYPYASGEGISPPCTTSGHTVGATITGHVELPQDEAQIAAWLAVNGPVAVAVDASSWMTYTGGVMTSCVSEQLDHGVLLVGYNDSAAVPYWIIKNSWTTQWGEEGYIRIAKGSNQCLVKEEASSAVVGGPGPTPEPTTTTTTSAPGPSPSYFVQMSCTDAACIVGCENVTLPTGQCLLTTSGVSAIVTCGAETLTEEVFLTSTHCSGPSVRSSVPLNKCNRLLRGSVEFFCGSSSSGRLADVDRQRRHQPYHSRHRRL
# Cruzipain, sequence (P25779 whole entry): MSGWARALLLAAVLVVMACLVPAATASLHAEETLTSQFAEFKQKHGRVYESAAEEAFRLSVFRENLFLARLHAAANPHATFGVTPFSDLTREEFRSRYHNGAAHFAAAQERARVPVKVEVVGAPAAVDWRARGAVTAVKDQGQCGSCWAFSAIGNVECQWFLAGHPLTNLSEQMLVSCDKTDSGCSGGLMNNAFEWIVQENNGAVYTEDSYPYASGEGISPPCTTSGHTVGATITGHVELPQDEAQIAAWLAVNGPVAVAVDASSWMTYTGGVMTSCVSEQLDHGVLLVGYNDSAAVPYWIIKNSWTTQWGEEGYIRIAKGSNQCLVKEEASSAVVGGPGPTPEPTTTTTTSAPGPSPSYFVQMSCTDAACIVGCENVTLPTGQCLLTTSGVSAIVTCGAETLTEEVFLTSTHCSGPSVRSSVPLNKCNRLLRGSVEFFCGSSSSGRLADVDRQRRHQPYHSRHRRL
# Nonstructural protein 3 (Zika virus), sequence (A0A024AXB9 as listed by the source): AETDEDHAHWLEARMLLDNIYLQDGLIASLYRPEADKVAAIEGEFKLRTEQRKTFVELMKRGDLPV
Compound,IC50 [1] [µM],EC50 (Trypanosoma brucei [2]) [µM],EC50 (Trypanosoma cruzi [3]) [µM],inhibition [4] [%],inhibition (Trypanosoma brucei [6]) [%],inhibition (Trypanosoma brucei [7]) [%],IC50 (Cruzipain) [µM],further results
Clc1ccc(-n2cc(CNCC3CCNCC3)nn2)cc1,168,49.7,> 10,,,,,
OCCNCc1cn(-c2ccc(Br)cc2Cl)nn1,,> 50,> 10,,,,,
NC(=S)N/N=C/c1ccc(-c2ccc(Br)cc2Cl)o1,0.05,> 50,0.027,17,22,90,0.45,inhibition [5]: 70%; inhibition [8]: 8%; selectivity ratio [9]: > 370; Ratio EC50 (Trypanosoma cruzi [10]): 200; Ratio EC50 (Trypanosoma cruzi [11]): 200; IC50 [12]: 0.006 µM; IC50 [13]: 0.05 µM; IC50 [14]: 0.7 µM; IC50 [15]: 14 µM; inhibition [16]: inactive
O=C(Cn1ccnc1[N+](=O)[O-])NCc1ccccc1 [BENZNIDAZOLE],,,5.4,,,,,selectivity ratio [9]: > 9
O=C(NCCO)c1cn(-c2ccc(Br)cc2Cl)nn1,,> 50,> 10,,,,,
CN(C)CCCNCc1ccc(-c2ccc(Br)cc2)o1,,,,79,59,,,
N/C(S)=N/N=C/c1ccc(-c2ccc(Cl)cc2)o1,0.04,27,0.56,19,14,96,,inhibition [5]: 94%; inhibition [8]: 24%; IC50 [12]: 0.07 µM; IC50 [13]: 0.04 µM; IC50 [15]: 15 µM; inhibition [16]: inactive
Clc1cc(Br)ccc1-c1ccc(CNCCN2CCOCC2)o1,79,24.4,0.59,,62,60,92,selectivity ratio [9]: > 17
OCC(CO)NCc1ccc(-c2ccc(Cl)c(C(F)(F)F)c2)o1,,> 50,> 10,,0,51,133,
NC(=S)N/N=C/c1ccc(-c2ccc(Cl)cc2)o1,,,,,,,1,selectivity ratio [9]: > 18
CN(C)CCCNCc1ccc(-c2ccc(Cl)cc2Cl)o1,,,,67,81,,,
NC(=S)N/N=C/c1cn(-c2ccc(Cl)cc2)nn1,16.5,> 50,> 10,52,73,91,,inhibition [5]: 72%; IC50 [12]: 1 µM; IC50 [13]: 16 µM
OCCNCc1cn(-c2ccc(Cl)cc2)nn1,,> 50,> 10,,,,,
OCCNCc1ccc(-c2ccc(Cl)c(Cl)c2)o1,,> 50,> 10,62,29,40,,inhibition [5]: 55%
NC(=S)N/N=C/c1cn(-c2ccc(Br)cc2Cl)nn1,2.5,> 50,> 10,16,25,98,,inhibition [5]: 6%; IC50 [12]: 0.6 µM; IC50 [13]: 2 µM
OCCNCc1cn(-c2ccc(Cl)c(Cl)c2)nn1,,> 50,> 10,,,,,
OCCNCc1ccc(-c2ccc(Br)cc2Cl)o1,78,13,> 10,,68,67,51,
OCC(CO)NCc1ccc(-c2ccc(Br)cc2Cl)o1,90,39.5,> 10,,64,,149,
